Laboratory results from US7094909B2, “HIV protease inhibitors, compositions containing the same, their pharmaceutical uses and materials for their synthesis” (priority 2001, dated 2006).

Legend:
[1] = molecular target: T1, HIV-1 protease (Q7S mutant form) (Human immunodeficiency virus type 1 group M subtype B, UniProt P04585, Q495S); assay: HIV-1 Protease RET assay; format: biochemical; settings: Ave. Ki (nM), RET assay, Q7S enzyme, Morrison tight binding fit
T1 construct: made in house
Procedure, shortened: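 Q7S HIV-1 protease, refolded from urea, 2 nM active dimer with 5 μM EDANS/DABCYL peptide cleaved at Tyr-Pro; fluorescence 340/490 nm. 12 min at 37 °C in 0.1M sodium acetate pH 4.8, 1M NaCl, 10% DMSO. Ki from Morrison tight-binding fit.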

[2] = test system: HIV-1 (HIV-1 RF, HIV-1 NL4-3) in CEM-SS / MT-2 cells; assay: Cytopathic effect (CPE) inhibition assay (XTT/MTT dye reduction); format: cell-based; settings: Human immunodeficiency virus 1, NL43; read-out: Ave CPE EC50
Procedure, shortened: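 CEM-SS or MT-2 cells were infected with HIV-1 RF or NL4-3 (moi 0.025–0.819) and plated at 2×10^4 cells/well with half-log compound dilutions for 6 days. Viability was read by XTT formazan at 450 nm after 4 h. EC50 restores formazan to 50% of uninfected untreated cells, CC50 halves it in uninfected cells, and TI = CC50/EC50.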

Cc1c(O)cccc1C(=O)N[C@@H](Cc1ccccc1)[C@H](O)C(=O)N1CC(F)(F)C(C)(C)[C@H]1C(=O)NCc1ccco1 [Example C20, (S)-4,4-Difluoro-1-[(2S,3S)-2-hydroxy-3-(3-hydroxy-2-methyl-benzoylamino)-4-phenyl-butyryl]-3,3-dimethyl-pyrrolidine-2-carboxylic acid (furan-2-ylmethyl)-amide]
Ki [1]: < 0.1 nM | EC50 [2]: 35 nM

Cc1ccccc1CNC(=O)[C@@H]1CC(F)(F)CN1C(=O)[C@@H](O)[C@H](Cc1ccccc1)NC(=O)O[C@H]1CCOC1 [Example C41, {(1S,2S)-1-Benzyl-3-[(S)-4,4-difluoro-2-(2-methyl-benzylcarbamoyl)-pyrrolidin-1-yl]-2-hydroxy-3-oxo-propyl}-carbamic acid (S)-(tetrahydro-furan-3-yl)ester]
Ki [1]: 1.3 nM | EC50 [2]: 1430 nM

Cc1ccccc1CNC(=O)[C@@H]1CC(F)(F)CN1C(=O)[C@@H](O)[C@H](Cc1ccccc1)NC(=O)c1ccc(C)c(O)c1C [Example C42, (S)-4,4-Difluoro-1-((2S,3S)-2-hydroxy-3-{[1-(3-hydroxy-2,4-dimethyl-phenyl)-methanoyl]-amino}-4-phenyl-butanoyl)-pyrrolidine-2-carboxylic acid 2-methyl-benzylamide]
Ki [1]: 4 nM | EC50 [2]: 3200 nM

CCCNC(=O)[C@@H]1CC(F)(F)CN1C(=O)[C@@H](O)[C@H](Cc1ccccc1)NC(=O)COc1c(C)cccc1C [Example C45, 1-{3-[2-(2,6-Dimethyl-phenoxy)-acetylamino]-2-hydroxy-4-phenyl-butyryl}-4,4-difluoro-pyrrolidine-2-carboxylic acid propylamide]
Ki [1]: 3.6 nM | EC50 [2]: 1580 nM

Cc1ccccc1CNC(=O)[C@H]1N(C(=O)[C@@H](O)[C@H](Cc2ccccc2)NC(=O)COc2c(C)cccc2C)CC(F)(F)C1(C)C [Example C46, (S)-1-{(2S,3S)-3-[2-(2,6-Dimethyl-phenoxy)-acetylamino]-2-hydroxy-4-phenyl-butyryl}-4,4-difluoro-3,3-dimethyl-pyrrolidine-2-carboxylic acid 2-methyl-benzylamide]
Ki [1]: < 0.1 nM | EC50 [2]: 407 nM

Cc1ccccc1CNC(=O)[C@H]1N(C(=O)[C@@H](O)[C@H](Cc2ccccc2)NC(=O)O[C@H]2CCOC2)COC1(C)C [Example C47, {(1S,2S)-1-Benzyl-3-[(S)-5,5-dimethyl-4-(2-methyl-benzylcarbamoyl)-oxazolidin-3-yl]-2-hydroxy-3-oxo-propyl}-carbamic acid (S)-(tetrahydro-furan-3-yl)ester]
Ki [1]: 1.4 nM | EC50 [2]: 1380 nM

Cc1ccccc1CNC(=O)[C@H]1N(C(=O)[C@@H](O)[C@H](Cc2ccccc2)NC(=O)c2cccc(O)c2C)CC(=O)C1(C)C [Example C48, 1-[2-Hydroxy-3-(3-hydroxy-2-methyl-benzoylamino)-4-phenyl-butyryl]-3,3-dimethyl-4-oxo-pyrrolidine-2-carboxylic acid 2-methyl-benzylamide]
Ki [1]: < 0.1 nM | EC50 [2]: 128 nM

Cc1ccccc1CNC(=O)[C@@H]1C2CCC(C2)N1C(=O)[C@@H](O)[C@H](Cc1ccccc1)NC(=O)c1cccc(O)c1C (stereo partly drawn) [Example C50, 2-(2-Hydroxy-3-{[1-(-hydroxy-2-methyl-phenyl)-methanoyl]-amino}-4-phenyl-butanoyl)-2-aza-bicyclo[2.2.1]-heptane-3-carboxylic acid-2-methyl-benzylamide]
Ki [1]: 7.9 nM | EC50 [2]: 997 nM

CCCNC(=O)[C@H]1N(C(=O)[C@@H](O)[C@H](Cc2ccccc2)NC(=O)c2cc(C)cc(O)c2C)CC(F)(F)C1(C)C [Example D4, (S)-4,4-Difluoro-1-[(2S,3S)-2-hydroxy-3-(3-hydroxy-2,5-dimethyl-benzoylamino)-4-phenyl-butyryl]-3,3-dimethyl-pyrrolidine-2-carboxylic acid propylamide]
Ki [1]: < 0.1 nM | EC50 [2]: 9 nM
